The text below walks through data of ChEMBL document CHEMBL3397018, “Discovery of phenylpiperazine derivatives as IGF-1R inhibitor with potent antiproliferative properties in vitro” (Bioorg Med Chem Lett, 2015).

A short description of data set [1]: Cytotoxicity against human QSG7701 cells after 72 hrs by MTT assay. In kind it is cell-based. On the technique in general: Tetrazolium dyes change colour on reduction, which living cells bring about.
Another data set is described as follows: cells. The note with it: Homo sapiens, LS174T, 48 h.
The subject of data set [2] is MCF7. The data set is described as follows: cells. To be noted: Homo sapiens, MCF7, 48 h.
Data set [3] can be described thus: Antiproliferative activity against human SMMC7721 cells after 48 hrs by MTT assay. To be noted: SMMC-7721, 48 h.
Data set [4] is described as follows: Antiproliferative activity against human SGC7901 cells after 48 hrs by MTT assay. To be noted: SGC-7901, 48 h.
For data set [5], the target named is Insulin-like growth factor 1 receptor (Homo sapiens, UniProt P08069). The data set is described as follows: Inhibition of NH2-terminal glutathione S-transferase fused human recombinant IGF-IR catalytic domain expressed in insect cells using poly(Glu:Tyr) substrate by ELISA-based assay.
The test system of data set [6] is MCF7. The data set is described as follows: Induction of apoptosis in human MCF7 cells after 24 hrs by DNA ladder detection based method. In kind it is functional, cell-based.

The source made the active and inactive calls. The rule behind the calls is not given here.

Sequence of Insulin-like growth factor 1 receptor (P08069 31-736 limits assumed): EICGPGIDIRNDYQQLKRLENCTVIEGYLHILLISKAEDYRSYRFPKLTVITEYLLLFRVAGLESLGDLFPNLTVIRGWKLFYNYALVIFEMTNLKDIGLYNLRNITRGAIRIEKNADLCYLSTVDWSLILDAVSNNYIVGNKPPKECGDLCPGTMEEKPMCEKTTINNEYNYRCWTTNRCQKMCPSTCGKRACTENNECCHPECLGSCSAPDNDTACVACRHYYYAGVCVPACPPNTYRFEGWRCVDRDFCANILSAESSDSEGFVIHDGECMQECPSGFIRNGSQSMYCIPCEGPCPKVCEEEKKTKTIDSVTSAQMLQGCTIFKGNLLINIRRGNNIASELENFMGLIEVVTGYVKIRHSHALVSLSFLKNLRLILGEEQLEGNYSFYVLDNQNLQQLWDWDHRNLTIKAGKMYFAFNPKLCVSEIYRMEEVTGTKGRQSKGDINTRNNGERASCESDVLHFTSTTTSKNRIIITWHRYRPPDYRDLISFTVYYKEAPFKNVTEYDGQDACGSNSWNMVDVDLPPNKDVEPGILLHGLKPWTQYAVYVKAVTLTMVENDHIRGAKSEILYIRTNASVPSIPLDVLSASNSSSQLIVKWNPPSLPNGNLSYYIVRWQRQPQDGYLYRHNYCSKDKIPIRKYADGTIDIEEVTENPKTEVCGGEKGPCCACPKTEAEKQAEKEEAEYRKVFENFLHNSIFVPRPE
Sequence of Insulin-like growth factor 1 receptor (P08069 741-1367 limits assumed): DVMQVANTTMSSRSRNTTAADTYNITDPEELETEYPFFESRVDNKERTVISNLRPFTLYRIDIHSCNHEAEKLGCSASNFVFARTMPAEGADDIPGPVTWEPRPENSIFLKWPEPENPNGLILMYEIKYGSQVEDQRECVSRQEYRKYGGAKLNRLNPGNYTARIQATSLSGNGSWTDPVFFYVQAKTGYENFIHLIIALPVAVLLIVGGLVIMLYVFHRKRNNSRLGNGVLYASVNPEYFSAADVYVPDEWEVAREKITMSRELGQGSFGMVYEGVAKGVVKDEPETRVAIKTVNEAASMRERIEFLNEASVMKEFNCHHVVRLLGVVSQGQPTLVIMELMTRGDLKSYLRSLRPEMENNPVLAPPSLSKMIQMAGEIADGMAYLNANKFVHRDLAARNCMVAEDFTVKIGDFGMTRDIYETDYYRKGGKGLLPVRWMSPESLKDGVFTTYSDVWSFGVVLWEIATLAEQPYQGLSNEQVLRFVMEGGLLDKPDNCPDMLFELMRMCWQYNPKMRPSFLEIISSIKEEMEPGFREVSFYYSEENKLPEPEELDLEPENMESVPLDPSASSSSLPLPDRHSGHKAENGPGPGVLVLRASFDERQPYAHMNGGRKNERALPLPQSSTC

One may read the CC50 as the concentration that lowers cell viability or growth by half. The low end stands for greater toxicity to the cells, the high end for lower toxicity to the cells. As a reminder, the IC50 is the point on the concentration scale where inhibition reaches its midpoint. Turning to `Cc1cc(N2CCOCC2)cc2[nH]c(-c3c(NC[C@@H](O)c4cccc(Cl)c4)cc[nH]c3=O)nc12`, the cytotoxic concentration (CC50) at 72 h in data set [1] was 32000 µM. In addition, the IC50 in “cells” was 2.05 µM; in the data set on MCF7 [2], 1.75 µM; in data set [3], 2.56 µM; in data set [4], 2.89 µM.

Compound `OC(CN1CCN(C(c2ccccc2)c2ccccc2)CC1)c1ccc(Br)cc1` (stereo not given) yielded a CC50 at 72 h in data set [1] of 2000 µM. Also, the concentration for half-maximal inhibition (IC50) in data set [5] is 0.034 µM; in “cells” it was 0.111 µM; with MCF7 [2], 0.037 µM; in data set [3], 0.135 µM; in data set [4], 0.253 µM.

`COc1cccc(N2CCN(CC(O)c3ccc(Br)cc3)CC2)c1` (stereo not given): the IC50 in “cells” was 2.06 µM; in the data set on MCF7 [2], 1.44 µM; in data set [3], 2.91 µM; in data set [4], 3.29 µM.

For `OC(CN1CCN(c2ccccc2F)CC1)c1ccc(Br)cc1` (stereo not given), the IC50 in “cells” came to 5.34 µM; in the data set with MCF7 [2], 16.4 µM; in data set [3], 9.63 µM; in data set [4], 16 µM.

Consider `OC(CN1CCN(c2cccc(C(F)(F)F)c2)CC1)c1ccc(Br)cc1` (stereo not given), for which the CC50 at 72 h in data set [1] was 6600 µM. In addition, the IC50 was 0.963 µM in the data set “cells”, 0.86 µM with MCF7 [2], 1.2 µM in data set [3] and 2.08 µM in data set [4].

`COc1ccc(N2CCN(CC(O)c3ccc(Br)cc3)CC2)cc1` (stereo not given): the IC50 in “cells” is 2.6 µM; in the data set on MCF7 [2], 1.34 µM; in data set [3] it was 2.82 µM; in data set [4] it was 3.46 µM.

With `OC(CN1CCN(c2cccc(Cl)c2Cl)CC1)c1ccc(Br)cc1` (stereo not given), the IC50 in “cells” is 1.92 µM; in the data set with MCF7 [2], 1.06 µM; in data set [3], 2.04 µM; in data set [4], 2.47 µM.

In the case of `OC(CN1CCN(c2ccccc2Cl)CC1)c1ccc(Br)cc1` (stereo not given), the IC50 came to 2.54 µM in “cells”, 2.46 µM in the data set with MCF7 [2], 3.92 µM in data set [3] and 4.62 µM in data set [4].

For `Cc1ccc(N2CCN(CC(O)c3ccc(Br)cc3)CC2)c(C)c1` (stereo not given), the IC50 in “cells” was found to be 1.82 µM; with MCF7 [2], 0.863 µM; in data set [3], 1.48 µM; in data set [4], 1.39 µM.

As to `COc1ccccc1N1CCN(CC(O)c2ccc(Br)cc2)CC1` (stereo not given), the half-maximal inhibitory concentration (IC50) in “cells” turned out to be 2.57 µM; in the data set with MCF7 [2], 1.22 µM; in data set [3], 2.28 µM; in data set [4], 4.15 µM.

In the case of `OC(CN1CCN(c2ccccn2)CC1)c1ccc(Br)cc1` (stereo not given), the IC50 in “cells” came to 6.61 µM; with MCF7 [2], 3.41 µM; in data set [3], 6.12 µM; in data set [4], 5.7 µM.

In data set [1], `O=[N+]([O-])c1ccc(N2CCN(CC(O)c3ccc(Br)cc3)CC2)cc1` (stereo not given) registered a CC50 at 72 h of 1600 µM. For the same compound, the IC50 in the data set “cells” turned out to be 2.18 µM; with MCF7 [2] it was 1.31 µM; in data set [3], 1.53 µM; in data set [4], 1.84 µM.

In the case of `OC(CN1CCN(c2ccc(F)cc2)CC1)c1ccc(Br)cc1` (stereo not given), the IC50 in “cells” amounted to 4.61 µM; in the data set on MCF7 [2] it was 11.5 µM; in data set [3], 8.16 µM; in data set [4], 10.3 µM.

On to `OC(CN1CCN(C(c2ccc(F)cc2)c2ccc(F)cc2)CC1)c1ccc(Br)cc1` (stereo not given), for which the IC50 in “cells” was 0.068 µM; with MCF7 [2], 0.024 µM; in data set [3], 0.15 µM; in data set [4], 0.116 µM. In the data set on MCF7 [6], the result was Active.

In the case of `OC(CN1CCN(c2ccccc2)CC1)c1ccc(Br)cc1` (stereo not given), the CC50 at 72 h in data set [1] was found to be 250 µM. In addition, the half-inhibitory concentration (IC50) in “cells” is 8.99 µM; in the data set with MCF7 [2], 5.71 µM; in data set [3] it was 7.64 µM; in data set [4], 9.28 µM.

Take `OC(CN1CCN(Cc2ccccc2)CC1)c1ccc(Br)cc1` (stereo not given): the IC50 was 0.568 µM in data set [5]; 2.69 µM in “cells”; 2.88 µM in the data set with MCF7 [2]; 3.54 µM in data set [3]; 3.76 µM in data set [4].

In the case of `OC(CN1CCN(c2ccc(Cl)c(Cl)c2)CC1)c1ccc(Br)cc1` (stereo not given), the IC50 in the data set “cells” was 1.89 µM; in the data set with MCF7 [2], 0.777 µM; in data set [3] it was 1.68 µM; in data set [4] it was 2.14 µM.

As to `OC(CN1CCN(c2cccc(Cl)c2)CC1)c1ccc(Br)cc1` (stereo not given), the IC50 in the data set “cells” amounted to 16.9 µM; with MCF7 [2] it was 10.4 µM; in data set [3], 7.83 µM; in data set [4], 22.3 µM.
